{
  "source": "patent US9588123B2",
  "about": "“Compositions and methods for in vitro diagnostic tests including zwitterionic solubilization reagent” (SurModics IVD, Inc., priority 2014, dated 2017)",
  "key": {"HRP": {"biological_target": "HRP", "assay": "Kinetic rate of HRP oxidation of TMB substrate on anti-peroxidase coated microwell plate, A (650 nm)", "assay_type": "biochemical, horseradish", "conditions": "0-1 OD at 650 nm, 0-15 minutes", "procedure": "A TMB solution was prepared having the following concentration of reagents: 3 mM TMB (Sigma, Cat #T-2885), 0.5% dimethylsulfoxide (DMSO; […] Various chemicals, used at 0.5M in the TMB solution, were compared against the betaine reagent in non-encapsulation solubilization methods. Glycine (Sigma, Cat #G8898), sarcosine (Sigma, Cat #131776), choline chloride (Sigma, Cat #C1909), L-carnitine (Sigma, Cat #C0158), 3-(1-pyridinio)-1-propanesulfonate (Sigma, Cat #82804), or the betaine N,N,N-trimethylglycine (Sigma, Cat #B2629) were all added to separate scintillation vials of TMB solution. A Nunc Maxisorb 96 microwell plate (Cat #439454) was coated with 100 μL of an 850 ng/mL solution of Rabbit Anti-Peroxidase (Accurate Chemical and Scientific Corporation, Cat #ACZ001021). The plate was then coated with 150 μL of StabilCoat (SurModics, Cat #SC01) for one hour. This was then aspirated and the plate was allowed to dry overnight in a desiccation chamber. Plates were then incubated with 100 μL of 3.125 ng/mL solution of HRP in Stabilzyme HRP Conjugate stabilizer (SurModics, SZ02) for one hour, washed three times, and 100 uL of TMB substrate was added to each well. […] To each TMB solution was added 1 mM hydroxy propyl beta-cyclodextrin (Wacker, 60082620), 3 mm hydroxy propyl beta-cyclodextrin (Wacker, 60082620), or 0.5M of the betaine N,N,N-trimethylglycine (Sigma, Cat #B2629). A Nunc Maxisorb 96 microwell plate (Cat #439454) was coated with 100 μL of an 850 ng/mL solution of Rabbit Anti-Peroxidase (Accurate Chemical and Scientific Corporation, Cat #ACZ001021). The plate was then coated with 150 μL of StabilCoat (SurModics, Cat #SC01) for one hour. This was then aspirated and the plate was allowed to dry overnight in a desiccation chamber. Plates were then incubated with 100 μL of 3.125 ng/mL solution of HRP in Stabilzyme HRP Conjugate stabilizer (SurModics, SZ02) for one hour, washed three times, and 100 uL of TMB substrate was added to each well."}, "[1]": {"assay": "Dye content of TMB solution, A (285 nm): amount of unrestricted benzidine rings in solution", "assay_type": "physicochemical", "procedure": "A TMB solution was prepared having the following concentration of reagents: 3 mM TMB (Sigma, Cat #T-2885), 0.5% dimethylsulfoxide (DMSO; […] Various chemicals, used at 0.5M in the TMB solution, were compared against the betaine reagent in non-encapsulation solubilization methods. Glycine (Sigma, Cat #G8898), sarcosine (Sigma, Cat #131776), choline chloride (Sigma, Cat #C1909), L-carnitine (Sigma, Cat #C0158), 3-(1-pyridinio)-1-propanesulfonate (Sigma, Cat #82804), or the betaine N,N,N-trimethylglycine (Sigma, Cat #B2629) were all added to separate scintillation vials of TMB solution. Each TMB substrate and TMBW (available from SurModics, Inc) in an amount of 20 μL were added to individual aliquots of 980 μL of distilled water. […] Each TMB solution in an amount of 20 μL was added to individual aliquots of 980 μL of distilled water. […] To each TMB solution was added 1 mM hydroxy propyl beta-cyclodextrin (Wacker, 60082620), 3 mm hydroxy propyl beta-cyclodextrin (Wacker, 60082620), or 0.5M of the betaine N,N,N-trimethylglycine (Sigma, Cat #B2629). Each TMB substrate and TMBW (available from SurModics, Inc) in an amount of 20 μL of were added to individual aliquots of 980 μL of distilled water."}, "[2]": {"conditions": "cited from earlier work"}, "[3]": {"conditions": "Example 1: additive at 0.5M in TMB solution (3 mM TMB, 1.25 mM hydroxypropyl beta-cyclodextrin, pH 3.5), TMBW as supplied"}, "[4]": {"conditions": "Example 1: additive at 0.5M in TMB solution (3 mM TMB, 0.5% DMSO, 1.25 mM hydroxypropyl beta-cyclodextrin, 0.01% H2O2, pH 3.5), TMBW as supplied, 20 μL in 980 μL water"}},
  "note": "Where two headings read alike, the source gives them in different places.",
  "data": [
    {"compound": "C[N+](C)(C)C[C@H](O)CC(=O)[O-]", "note": "(racemic) [DL-Carnitine, L-carnitine]", "values": [
      {"measurement": "Kinetics (mAu/min)", "setting": "HRP; [3]", "result": 18.432, "unit": "mAu/min"},
      {"measurement": "Dye (A285)", "setting": "[1]; [4]", "result": 0.254}
    ]},
    {"compound": "Cc1cc(-c2ccc(N)c(C)c2)ccc1N", "note": "[2-tolidine]", "values": [
      {"measurement": "solubility in water", "setting": "[2]", "result": 1.3, "unit": "g/L"}
    ]},
    {"compound": "O=S(=O)([O-])CCC[n+]1ccccc1", "note": "[3-(1-Pyridinio)-1-propanesulfonate, 3-(1-pyridinio)-1-propanesulfonate]", "values": [
      {"measurement": "Kinetics (mAu/min)", "setting": "HRP; [3]", "result": 49.732, "unit": "mAu/min"},
      {"measurement": "Dye (A285)", "setting": "[1]; [4]", "result": 1.175}
    ]},
    {"compound": "Nc1ccc(-c2ccc(N)cc2)cc1", "note": "[Benzidine, biphenyl-4,4′-diamine]", "values": [
      {"measurement": "solubility in water", "setting": "[2]; at 100° C., in the absence of the N,N,N-trimethylglycine solubilization reagent", "result": 0.94, "unit": "g/100 mL"}
    ]},
    {"compound": "C[N+](C)(C)CC(=O)O", "note": "[Betaine (N,N,N-trimethylglycine), N,N,N-trimethylglycine]", "values": [
      {"measurement": "solubility in water", "setting": "[2]; at 25° C.", "result": "up to 64 g/100 mL"},
      {"measurement": "solubility in water (molar)", "setting": "[2]; at 25° C.", "result": "~5500", "unit": "mM"},
      {"measurement": "Kinetics (mAu/min)", "setting": "HRP; [3]", "result": 71.917, "unit": "mAu/min"},
      {"measurement": "Kinetics (mAu/min)", "setting": "HRP; Example 3: 0.5M additive in 3 mM TMB solution, pH 3.5", "result": 71.739, "unit": "mAu/min"},
      {"measurement": "Dye (A285)", "setting": "[1]; [4]", "result": 0.974},
      {"measurement": "Dye (A285)", "setting": "[1]; Example 2: 0.25M N,N,N-trimethylglycine, 3 mM TMB, 0.5% DMSO, pH 3.5", "result": 0.35},
      {"measurement": "Dye (A285)", "setting": "[1]; Example 2: 0.5M N,N,N-trimethylglycine, 3 mM TMB, 0.5% DMSO, pH 3.5", "result": 0.535},
      {"measurement": "Dye (A285)", "setting": "[1]; Example 2: 1M N,N,N-trimethylglycine, 3 mM TMB, 0.5% DMSO, pH 3.5", "result": 0.85},
      {"measurement": "Dye (A285)", "setting": "[1]; Example 3: 0.5M additive in 3 mM TMB, 0.5% DMSO, 0.01% H2O2, pH 3.5", "result": 1.061}
    ]},
    {"compound": "C[N+](C)(C)CCO.[Cl-]", "note": "[Choline Chloride, choline chloride]", "values": [
      {"measurement": "Kinetics (mAu/min)", "setting": "HRP; [3]", "result": 2.855, "unit": "mAu/min"},
      {"measurement": "Dye (A285)", "setting": "[1]; [4]", "result": 1.074}
    ]},
    {"compound": "NCC(=O)O", "note": "[Glycine]", "values": [
      {"measurement": "Kinetics (mAu/min)", "setting": "HRP; [3]", "result": 41.16, "unit": "mAu/min"},
      {"measurement": "Dye (A285)", "setting": "[1]; [4]", "result": 0.358}
    ]},
    {"compound": "CNCC(=O)O", "note": "[Sarcosine, sarcosine]", "values": [
      {"measurement": "Kinetics (mAu/min)", "setting": "HRP; [3]", "result": 45.014, "unit": "mAu/min"},
      {"measurement": "Dye (A285)", "setting": "[1]; [4]", "result": 0.45}
    ]},
    {"compound": "hydroxy propyl beta-cyclodextrin [Beta Cyclodextrin]", "values": [
      {"measurement": "Kinetics (mAu/min)", "setting": "HRP; Example 3: 1 mM additive in 3 mM TMB solution, pH 3.5", "result": 39.697, "unit": "mAu/min"},
      {"measurement": "Kinetics (mAu/min)", "setting": "HRP; Example 3: 3 mM additive in 3 mM TMB solution, pH 3.5", "result": 49.775, "unit": "mAu/min"},
      {"measurement": "Dye (A285)", "setting": "[1]; Example 3: 1 mM additive in 3 mM TMB, 0.5% DMSO, 0.01% H2O2, pH 3.5", "result": 0.339},
      {"measurement": "Dye (A285)", "setting": "[1]; Example 3: 3 mM additive in 3 mM TMB, 0.5% DMSO, 0.01% H2O2, pH 3.5", "result": 0.78}
    ]}
  ]
}
